ChEMBL document CHEMBL1122598, “A cannabinoid derived prototypical analgesic” (1984)

Columns and labels:
Type in all cases: functional
Mus musculus [1] = species: Mus musculus; assay: Analgesic activity was determined by mouse tail flick (TF), 1 hour postdose.
Rattus norvegicus [2] = species: Rattus norvegicus; assay: Analgesic activity was determined by rat tail clamp assay(RTC), 2 hour postdose.
Mus musculus [3] = species: Mus musculus; assay: Analgesic activity was determined by mouse phenylbenzoquinone (PBQ) induced writhing, 1 hour postdose.
Mus musculus [4] = species: Mus musculus; assay: Analgesic activity was determined by mouse hot plate (HP), 1 hour postdose.
Rattus norvegicus [5] = species: Rattus norvegicus; assay: Analgesic activity was determined by rat flinch jump (FJ), 2 hour postdose.
Mus musculus [6] = assay: Analgesic activity was determined by mouse phenylbenzoquinone writhing test(PBQ) at a dose 56 mg/kg subcutaneous administration.; settings: sc
Mus musculus [7] = assay: Analgesic activity was determined by Mouse phenylbenzoquinone writhing test(PBQ) at a dose of 56 mg/kg subcutaneous administration.; settings: sc
Mus musculus [8] = assay: Analgesic activity was determined by Mouse phenylbenzoquinone writhing test(PBQ) at a dose of 100 mg/kg subcutaneous administration.; settings: sc
Mus musculus [9] = assay: Analgesic activity was determined by Mouse phenylbenzoquinone writhing test(PBQ) at a dose of 32 mg/kg subcutaneous administration.; settings: sc
Mus musculus [10] = assay: Analgesic activity was determined by Mouse phenylbenzoquinone writhing test(PBQ) at a dose of 10 mg/kg subcutaneous administration.; settings: sc

SMILES: CCCCCc1cc(O)c2c(c1)OC(C)(C)[C@@H]1CC[C@@H](O)C[C@@H]21
- MPE50 (Mus musculus [1]): 9.1 mg/kg
- MPE50 (Rattus norvegicus [2]): 7 mg/kg
- MPE50 (Mus musculus [3]): 0.63 mg/kg
- MPE50 (Mus musculus [4]): 34.4 mg/kg
- MPE50 (Rattus norvegicus [5]): 36.4 mg/kg

SMILES: CCCCCCC(C)(C)c1ccc([C@H]2CCC[C@@H](O)C2)c(O)c1
- MPE50 (Mus musculus [1]): 4.4 mg/kg
- MPE50 (Rattus norvegicus [2]): 4.7 mg/kg
- MPE50 (Mus musculus [3]): 1 mg/kg
- MPE50 (Mus musculus [4]): 8.1 mg/kg
- MPE50 (Rattus norvegicus [5]): 4.9 mg/kg

SMILES: CCCCCc1cc(O)c2c(c1)OC(C)(C)[C@@H]1CCC(C)=C[C@@H]21 [DRONABINOL]
- MPE50 (Mus musculus [1]): 55 mg/kg
- MPE50 (Rattus norvegicus [2]): 29.1 mg/kg
- MPE50 (Mus musculus [3]): 5.9 mg/kg
- MPE50 (Mus musculus [4]): >178 mg/kg
- MPE50 (Rattus norvegicus [5]): 83.1 mg/kg

SMILES: CCCCCCC(C)(C)c1ccc([C@H]2CCCC(=O)C2)c(O)c1
- MPE50 (Mus musculus [1]): 15.3 mg/kg
- MPE50 (Rattus norvegicus [2]): 26.1 mg/kg
- MPE50 (Mus musculus [3]): 4.5 mg/kg
- MPE50 (Mus musculus [4]): >32 mg/kg
- MPE50 (Rattus norvegicus [5]): 11.5 mg/kg

SMILES: CN1CC[C@]23c4c5ccc(O)c4O[C@H]2[C@@H](O)C=C[C@H]3[C@H]1C5 [MORPHINE]
- MPE50 (Mus musculus [1]): 5.7 mg/kg
- MPE50 (Rattus norvegicus [2]): 4.8 mg/kg
- MPE50 (Mus musculus [3]): 1.8 mg/kg
- MPE50 (Mus musculus [4]): 4.2 mg/kg
- MPE50 (Rattus norvegicus [5]): 10.3 mg/kg

SMILES: CCCCCCC(C)(C)c1ccc([C@H]2CCC[C@H](O)C2)c(O)c1
- MPE50 (Mus musculus [1]): 55.7 mg/kg
- MPE50 (Rattus norvegicus [2]): 12.3 mg/kg
- MPE50 (Mus musculus [3]): 3.8 mg/kg
- MPE50 (Mus musculus [4]): >56 mg/kg
- MPE50 (Rattus norvegicus [5]): 17.8 mg/kg

SMILES: CCCCCCC(C)(C)c1ccc(C(C)CC(C)=O)c(O)c1 (stereo unspecified)
- inhibition in vivo at 56 mg/kg (Mus musculus [6]): 0%

SMILES: CCCCCCC(C)(C)c1ccc(C(C)CC(C)O)c(O)c1 (stereo unspecified)
- inhibition in vivo at 56 mg/kg (Mus musculus [7]): 50%
- inhibition in vivo at 100 mg/kg (Mus musculus [8]): 53%
- inhibition in vivo at 32 mg/kg (Mus musculus [9]): 52%
- inhibition in vivo at 56 mg/kg (Mus musculus [6]): 55%
- inhibition in vivo at 10 mg/kg (Mus musculus [10]): 27%
